What was measured:
[1] = test system: cloned mammalian (mSlo or hSlo) BK channels heterologously expressed in Xenopus oocytes; assay: Assay for BK channel openers: two-electrode voltage clamp of BK-mediated outward current in Xenopus oocytes; type: cell-based; settings: percent increase over BK current in controls, voltage step to +140 mV, IBTX-sensitive current
Protocol: The ability of the compounds of the invention to open BK channels and increase whole-cell outward (K^+) BK-mediated currents was assessed under voltage-clamp conditions by determining their ability to increase cloned mammalian (mSlo or hSlo) BK-mediated outward current heterologously expressed in Xenopus oocytes [Butler, A., et al., Science 1993, 261, 221–224; Dworetzky, S. I., et al., Mol. Brain Res. 1994, 27, 189–193; Gribkoff, V. K., et al., Mol. Pharmacol. 1996, 50, 206–217]. The two BK constructs employed represent nearly structurally identical homologous proteins, and have proven to be pharmacologically indistinguishable in our tests. To isolate BK current from native (background, non-BK) current, the specific and potent BK channel-blocking toxin iberiotoxin (IBTX) [Galvez, A., et al., J. Biol. Chem. 1990, 265, 11083–11090] was employed at a supramaximal concentration, e.g., 50–100 nanomolar (“nM”). The relative contribution of BK channel-mediated current to total outward current was determined by subtraction of the current remaining in the presence of IBTX (non-BK current) from the current profiles obtained in all other experimental conditions (control, drug, and wash) [Gribkoff, V. K. et al., Mol. Pharmacol. 1996, 50, 206–217]. […] All compounds were tested in 5–10 oocytes and are reported at the indicated concentration of 20 micromolar (“μM”) (or as otherwise indicated); the effect of the selected compounds of the invention on BK current was expressed as the percent of control IBTX-sensitive current at a single transmembrane voltage (+140 mV) and is listed in Table 1. Recordings were accomplished using standard two-electrode voltage clamp techniques [Stuhmer, W., et al., Methods in Enzymology, 1992, 207, 319–339]; voltage-clamp protocols consisted of 500–750 milliseconds (“ms”) duration step depolarizations, from a holding potential of −60 mV, to a final voltage up to +140 mV in 20 mV steps. The experimental media (modified Barth's solution) consisted of millimolar (“mM”): NaCl (88), NaHCO3 (2.4), KCl (1.0), HEPES (10), MgSO4 (0.82), Ca(NO3)2 (0.33), CaCl2 (0.41); pH 7.5.

[2] = test system: rat small intestine (ileum) segments; assay: Rat small intestine (ileum) strip relaxation (nifedipine-sensitive force); set-up: species or system rat (Sprague Dawley); settings: integral of nifedipine-sensitive force pre- and 30 min post-compound; compound concentration not given
Source text: The ability of the compounds of the invention to relax rat small intestine tissue as a model for the treatment of irritable bowel syndrome is described as follows. Male rats (Harlan, Sprague Dawley, 250–350 g) were sacrificed by decapitation. A portion of small intestine (ileum) was removed and the attached connective tissues and intestinal contents removed. The ileum was cut into segments of ≧1 cm in length. The segments were mounted longitudinally between fixed hooks in organ baths containing warm (37° C.) physiological salt solution (composition in mM: NaCl 118.4, KCl 4.7, KH2PO4 1.2, MgSO4 1.2, CaCl2 1.8, Glucose 10.1, NaHCO3 25; gassed with 95% O2/5% CO2, pH 7.4). A stable tension of ˜1.5 g was maintained in the tissue segments during the equilibration period of 45 minutes. Changes in muscle tension were measured with isometric force transducers (Grass, FT-03C) and recorded using AcqKnowledge data acquisition system (AcqKnowledge for MP100WS, Biopac Systems Inc., Goleta, Calif.). Compound or vehicle was added in the baths for 30 minutes. “Zero” active force was established at the end of the experiment using nifedipine (20 μM). The effects of compounds or vehicle on force was determined by measuring the integral of nifedipine-sensitive force (including resting tone and spontaneous contractions) pre- and 30 min post-compound (or vehicle) addition. Results are expressed as the percentage inhibition of force. DMSO vehicle inhibited force (integral) by −0.6±3.0% (n=25).

SMILES | % MaxiK opening ([1]; at 20 μM) [%] | % inhibition of force (RSI strips) [2] [%] | % MaxiK opening ([1]; at 1 μM)
CN(C)CCN1CCN(CC(O)CSc2c(-c3cc(Cl)ccc3O)c3cc(C(F)(F)F)ccc3[nH]c2=O)CC1 (stereo not shown) [Example 86, 4-(5-Chloro-2-hydroxyphenyl)-3-[[3-[4-[2-(dimethylamino)ethyl]-1-piperazinyl]-2-hydroxypropyl]thio]-6-(trifluoromethyl)-2(1H)-quinolinone] | 124 | – | –
O=c1[nH]c2ccc(C(F)(F)F)cc2c(-c2cc(Cl)ccc2O)c1SCC(O)CN1CCOCC1 (stereo not shown) [Example 82, 4-(5-Chloro-2-hydroxyphenyl)-3-[[2-hydroxy-3-(4-morpholinyl)propyl]thio]-6-(trifluoromethyl)-2(1H)-quinolinone] | 292 | – | –
COc1ccc(Cl)cc1-c1c(SCC(O)CN2CCN(C)CC2)c(=O)[nH]c2ccc(C(F)(F)F)cc12 (stereo not shown) [Example 102, 4-(5-Chloro-2-methoxyphenyl)-3-[[2-hydroxy-3-(4-methyl-1-piperazinyl)propyl]thio]-6-(trifluoromethyl)-2(1H)-quinolinone] | 163 | – | –
O=c1[nH]c2ccc(C(F)(F)F)cc2c(-c2cc(Cl)ccc2O)c1SCC(O)CN1CCSCC1 (stereo not shown) [Example 85, 4-(5-Chloro-2-hydroxyphenyl)-3-[[2-hydroxy-3-(4-thiomorpholinyl)propyl]thio]-6-(trifluoromethyl)-2(1H)-quinolinone] | 319 | 40 | –
COc1ccc(Cl)cc1-c1c(SCC(O)CN2CCC(C)CC2)c(=O)[nH]c2ccc(C(F)(F)F)cc12 (stereo not shown) [Example 107, 4-(5-Chloro-2-methoxyphenyl)-3-[[2-hydroxy-3-(4-methyl-1-piperidinyl)propyl]thio]-6-(trifluoromethyl)-2(1H)-quinolinone] | 115 | – | –
COc1ccc(Cl)cc1-c1c(SCC(O)CN2CCN(CCO)CC2)c(=O)[nH]c2ccc(C(F)(F)F)cc12 (stereo not shown) [Example 79, 4-(5-Chloro-2-methoxyphenyl)-3-[[2-hydroxy-3-[4-(2-hydroxyethyl)-1-piperazinyl]propyl]thio]-6-(trifluoromethyl)-2(1H)-quinolinone] | 150 | 10 | –
CN(C)CCCN(C)CC(O)CSc1c(-c2cc(Cl)ccc2O)c2cc(C(F)(F)F)ccc2[nH]c1=O (stereo not shown) [Example 87, 4-(5-Chloro-2-hydroxyphenyl)-3-[[3-[[3-(dimethylamino)propyl]methylamino]-2-hydroxypropyl]thio]-6-(trifluoromethyl)-2(1H)-quinolinone] | 214 | – | –
CN1CCN(CCC(O)CSc2c(-c3cc(Cl)ccc3O)c3cc(C(F)(F)F)ccc3[nH]c2=O)CC1 (stereo not shown) [Example 4, 4-(5-Chloro-2-hydroxyphenyl)-3-[[2-hydroxy-4-(4-methyl-1-piperazinyl)butyl]thio]-6-(trifluoromethyl)-2(1H)-quinolinone] | 515 | – | –
O=c1[nH]c2ccc(C(F)(F)F)cc2c(-c2cc(Cl)ccc2O)c1SCC(O)CN1CCN(CCO)CC1 (stereo not shown) [Example 84, 4-(5-Chloro-2-hydroxyphenyl)-3-[[2-hydroxy-3-[4-(2-hydroxyethyl)-1-piperazinyl]propyl]thio]-6-(trifluoromethyl)-2(1H)-quinolinone] | 287 | 55 | –
COc1ccc(Cl)cc1-c1c(SCC(O)CN2CCSCC2)c(=O)[nH]c2ccc(C(F)(F)F)cc12 (stereo not shown) [Example 90, 4-(5-Chloro-2-methoxyphenyl)-3-[[2-hydroxy-3-(4-thiomorpholinyl)propyl]thio]-6-(trifluoromethyl)-2(1H)-quinolinone] | 97 | – | –
COc1ccc(Cl)cc1-c1c(SCC(O)CN2CCN(C(C)=O)CC2)c(=O)[nH]c2ccc(C(F)(F)F)cc12 (stereo not drawn) [Example 97, 4-Acetyl-alpha-[[[4-(5-chloro-2-methoxyphenyl)-1,2-dihydro-2-oxo-6-(trifluoromethyl)-3-quinolinyl]thio]methyl]-1-piperazineethanol] | 192 | – | –
COc1ccc(Cl)cc1-c1c(SCC(O)CN2CCN(c3ncccn3)CC2)c(=O)[nH]c2ccc(C(F)(F)F)cc12 (stereo not shown) [Example 92, 4-(5-Chloro-2-methoxyphenyl)-3-[[2-hydroxy-3-[4-(2-pyrimidinyl)-1-piperazinyl]propyl]thio]-6-(trifluoromethyl)-2(1H)-quinolinone] | – | – | 85^⋄ %
COc1ccc(Cl)cc1-c1c(SCC(O)CN2CCC(O)C2)c(=O)[nH]c2ccc(C(F)(F)F)cc12 (stereo not shown) [Example 91, 4-(5-Chloro-2-methoxyphenyl)-3-[[2-hydroxy-3-(3-hydroxy-1-pyrrolidinyl)propyl]thio]-6-(trifluoromethyl)-2(1H)-quinolinone] | 125 | – | –
CCN(CC)CC(O)CSc1c(-c2cc(Cl)ccc2O)c2cc(C(F)(F)F)ccc2[nH]c1=O (stereo not shown) [Example 74, 4-(5-Chloro-2-hydroxyphenyl)-3-[[3-(diethylamino)-2-hydroxypropyl]thio]-6-(trifluoromethyl)-2(1H)-quinolinone] | 192 | 46 | –
O=c1[nH]c2ccc(C(F)(F)F)cc2c(-c2cc(Cl)ccc2O)c1SCC(O)CN1CCCC1 (stereo not shown) [Example 81, 4-(5-Chloro-2-hydroxyphenyl)-3-[[2-hydroxy-3-(1-pyrrolidinyl)propyl]thio]-6-(trifluoromethyl)-2(1H)-quinolinone] | 192 | – | –
